Assay results: patent US11977028B2, “Mechanical-bond-induced exciplex fluorescence” (Northwestern University, priority 2020, dated 2024)
Values joined by “and” are separate entries in the source; they are usually repeats but may differ in a detail not shown here. Equal values may be shown once.

Assays:
[1] = Absorption and photoluminescence spectroscopy in solution; assay type: physicochemical
Description: The close proximity of the anthracene units in the mechanically interlocked cyclophanes was expected to give rise to remarkable optical properties distinct from those of the free cyclophanes. We explored the absorption and fluorescence properties of all compounds at high dilution (4×10^−7 M) to avoid reabsorption processes^40 and aggregation effects.^17 All of the optical parameters are summarized in Tables 1 and 2. Initially, we explored the influence of the pyridine/pyridinium units on the optical properties of both ^2,6AnBox^4+ and ^9,10AnBox^4+ cyclophanes. The presence of two pyridinium units within the linker dramatically affect the optical properties of the anthracene moiety. Although ^2,6AnBPY (FIG. 5C) and ^9,10AnBPY display^41 characteristic vibronic peaks associated with the anthracene moiety at 290 and 400 nm, ^2,6AnDB^2+ and ^9,10AnDB^2+ display a shift of the band at 290 to 330 nm (FIG. 5A) and the emergence of a new featureless broad band at 450 nm associated with CT from the anthracene moiety to the pyridinium unit. It is noteworthy that phenylene-bridged bipyridyl linkers (ExBIPY) display^35 a single absorption peak at 325 nm in MeCN, while the anthracene moiety leads to the emergence of some push-pull D-A character.
All reagents were purchased from commercial suppliers (Aldrich or Fisher) and used without further purification. Anthracene derivatives, 9,10-bis(4-pyridyl)anthracene (^9.^10AnBPY) and 2,6-bis(4-pyridyl)anthracene (^2,6AnBPY) were synthesized following^1,2 reports in the literature. All reactions and manipulations were carried out under a dry N2 atmosphere using standard Schlenk. Thin-layer chromatography (TLC) was performed on silica gel 60 F254 TLC plates (Merck). Column chromatography was carried out using CombiFlash® Automation Systems (Teledyne ISCO) employing both normal phase (RediSep Rf Gold® Normal-Phase Silica) and reverse phase (RediSep Rf Gold® Reversed-phase C18). […] All the spectra were baseline-corrected with a MeCN blank sample. The photoluminescence spectra of all samples were obtained with a Fluorolog-3 spectrafluorometer (Horiba Jobin Yvon) in a 2-mm quartz cuvette with 3-nm slit width and a front-phase geometry. The time-correlated single photon counting setup is described elsewhere.^3 Nuclear magnetic resonance (NMR) spectra were recorded on a Bruker Avance III 500 and 600 MHz spectrometers, with working frequencies of 500 and 600 MHz (′H NMR) and 125 MHz (^13C NMR), respectively. Chemical shifts are reported in ppm relative to the signals corresponding to the residual non-deuterated solvents (CD3CN: δ1−1=1.94 ppm and δC=1.32 ppm). High-resolution mass spectra (HRMS) were measured on an Agilent 6210 Time of Flight (TOF) LC-MS, using an ESI source, coupled with Agilent 1100 HPLC stack, using direct infusion (0.6 mL min ^−1). The binding constants were determined using this link: website http://supramolecular.org.^4

MIA PaCa-2 cancer cells = assay: Live-cell confocal microscopy imaging; assay type: cell-based; conditions: concentrations lower than 10×10^−6 M
Experimental: (§1) Cells were grown in standard DMEM (supplemented with 10% Fetal Bovine Serum and 1% Penicillin-Streptomycin, supplier=Corning). Cells were seeded into imaging coverglass chamber 40 hours prior to treatment. Compounds were resuspended in deionized H2O then diluted to the final concentration in media. Cells were treated with compounds for 6 hours prior to imaging.
(§2) All imaging was done on a Leica SP5 laser scanning confocal with LAS AF software in the Biological Imaging Facility at Northwestern University (Evanston, IL). A single excitation wavelength (458 nm) was used at a power of 5 uW. For the emission collection, two Leica spectral Hybrid (HyD) detectors were used; one was set to collect a wavelength range of 500-575 nm (with a gain of 200%) and the second was set to collect a wavelength range of 580-635 nm (with a gain of 103%). Images were processed with FIJI/ImageJ (NIH) and settings were kept consistent throughout the series of images.

[2] = test system: MIA PaCa-2 prostate cancer cells; assay: Live-cell confocal microscopy imaging; assay type: cell-based; conditions: 20×10^−6 M, 6 hours treatment, excitation 458 nm
Experimental: as §1, §2

Φ (PL quantum yield) ([1]; 4 × 10^−7 M, MeCN): 3.6%
λabs ([1]; 4 × 10^−7 M, MeCN): 458 nm
λem ([1]; 4 × 10^−7 M, MeCN): 548 nm and 562 nm
τ (emission lifetime) ([1]; 4 × 10^−7 M, MeCN, 405 nm excitation): 3 ns
λem ([1]; 4 × 10^−7 M, MeCN, listed as cyclophane): 562 nm
Stokes shifts (δ) ([1]; DMF, 4 × 10^−7 M): 3153 cm⁻¹
λabs ([1]; DMF, 4 × 10^−7 M): 472 nm
λem ([1]; DMF, 4 × 10^−7 M): 549 nm
λexc ([1]; DMF, 4 × 10^−7 M): 468 nm
Stokes shifts (δ) ([1]; EtOH, 4 × 10^−7 M): 3574 cm⁻¹
λabs ([1]; EtOH, 4 × 10^−7 M): 468 nm
λem ([1]; EtOH, 4 × 10^−7 M): 562 nm
λexc ([1]; EtOH, 4 × 10^−7 M): 468 nm
Stokes shifts (δ) ([1]; H2O, 4 × 10^−7 M): 3284 cm⁻¹
λabs ([1]; H2O, 4 × 10^−7 M): 458 nm
λem ([1]; H2O, 4 × 10^−7 M): 553 nm
λexc ([1]; H2O, 4 × 10^−7 M): 468 nm
Stokes shifts (δ) ([1]; Me2SO, 4 × 10^−7 M): 3915 cm⁻¹
λabs ([1]; Me2SO, 4 × 10^−7 M): 460 nm
λem ([1]; Me2SO, 4 × 10^−7 M): 570 nm
λexc ([1]; Me2SO, 4 × 10^−7 M): 466 nm
charge transfer (CT) absorption band ([1]; MeCN): 458 nm
Stokes shifts (δ) ([1]; MeCN, 4 × 10^−7 M (Table 2)): 3946 cm⁻¹
λabs ([1]; MeCN, 4 × 10^−7 M (Table 2)): 458 nm
λem ([1]; MeCN, 4 × 10^−7 M (Table 2)): 562 nm
λexc ([1]; MeCN, 4 × 10^−7 M (Table 2)): 460 nm
charge transfer (CT) absorption band ([1]; MeCN, listed as cyclophane): 455 nm
Stokes shifts (δ) ([1]; MeOH, 4 × 10^−7 M): 3854 cm⁻¹
λabs ([1]; MeOH, 4 × 10^−7 M): 460 nm
λem ([1]; MeOH, 4 × 10^−7 M): 568 nm
λexc ([1]; MeOH, 4 × 10^−7 M): 466 nm
Structure (SMILES): c1cc2ccc1C[n+]1ccc(cc1)-c1ccc3cc4cc(ccc4cc3c1)-c1cc[n+](cc1)Cc1ccc(cc1)C[n+]1ccc(cc1)-c1ccc3cc4cc(ccc4cc3c1)-c1cc[n+](cc1)C2 [^2,6AnBox^4+]
concentration dependence of excimer/exciplex emission ([1]; from high concentration to high dilution (10^−8 M)): absence of excimer emission at high concentration
emission detected in live cells (MIA PaCa-2 cancer cells): No emissions
emission in the green channel (500-575 nm) in live cells [2]: an emission in the green channel
emission in the red channel (580-635 nm) in live cells [2]: very weak emission in the red channel
